Laboratory results published in PubChem BioAssay (NCI).
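Where inhibition never reached the appropriate level, the endpoint shown equals the highest concentration tested. Otherwise, values were interpolated linearly from a five-concentration, 48-hour dose response in 96-well plates. GI50: concentration for 50% inhibition of growth. TGI is the concentration that stops growth completely.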

What was measured:
Experiment in all cases: NCI tumour cell line growth inhibition, 48 h
BT-549 breast = test system: BT-549 breast
DU-145 prostate = test system: DU-145 prostate
HOP-92 NSCLC = test system: HOP-92 NSCLC
HS 578T breast = test system: HS 578T breast
HT29 colon = test system: HT29 colon
K-562 leukemia = test system: K-562 leukemia
NCI-H23 lung = test system: NCI-H23 lung
RXF 393 renal = test system: RXF 393 renal
SK-MEL-5 melanoma = test system: SK-MEL-5 melanoma
SN12C renal = test system: SN12C renal

| SMILES | GI50 (BT-549 breast) [µM] | TGI (BT-549 breast) [µM] | GI50 (DU-145 prostate) [µM] | TGI (DU-145 prostate) [µM] | GI50 (HOP-92 NSCLC) [µM] | TGI (HOP-92 NSCLC) [µM] | GI50 (HS 578T breast) [µM] | TGI (HS 578T breast) [µM] | GI50 (HT29 colon) [µM] | TGI (HT29 colon) [µM] | GI50 (K-562 leukemia) [µM] | TGI (K-562 leukemia) [µM] | GI50 (NCI-H23 lung) [µM] | TGI (NCI-H23 lung) [µM] | GI50 (RXF 393 renal) [µM] | TGI (RXF 393 renal) [µM] | GI50 (SK-MEL-5 melanoma) [µM] | TGI (SK-MEL-5 melanoma) [µM] | GI50 (SN12C renal) [µM] | TGI (SN12C renal) [µM] |
| --- | --- | --- | --- | --- | --- | --- | --- | --- | --- | --- | --- | --- | --- | --- | --- | --- | --- | --- | --- | --- |
| CN(CCCCCl)P(=O)(OCc1ccc([N+](=O)[O-])o1)OCC1OC(n2cnc([N+](=O)[O-])c2N)C(O)C1O (stereo not given) | > 100 | > 100 | > 100 | > 100 | > 100 | > 100 | > 100 | > 100 | > 100 | > 100 | > 100 | > 100 | > 100 | > 100 | > 100 | > 100 | 37 | > 100 | > 100 | > 100 |
| NC1(Cc2ccc(Cl)cc2)CCN(c2ncnc3[nH]ccc23)CC1 | 3.45 | 16.3 | 9.37 | 25.1 | 1.09 | 7.06 | 2.17 | 14.6 | 3.7 | 17.8 | 4.66 | 19.4 | 4.55 | 21 | 1.41 | 7.12 | 14.9 | 28.2 | 4.4 | 28.8 |
| Cc1cc(O)c(C2=NN(c3ccc(S(N)(=O)=O)cc3)C(/C=C/c3ccccc3)C2)cc1Cl (stereo not given) | 6.12 | 21.3 | 14.1 | 38.6 | 2.36 | 8.48 | 12.3 | 49.7 | 3.73 | 14.7 | 11.6 | 87.5 | 1.68 | 12.5 | 6.69 | 20.2 | 4.23 | 16.4 | 11.1 | 25.6 |
| CC1OC(CC(=O)O)CC2=C1C(=O)c1c(O)cccc1C2=O (stereo not given) | – | 0.361 | – | 2.5 | – | 0.331 | – | 0.452 | – | 0.427 | – | 0.36 | – | 1.51 | – | 0.103 | – | 1.15 | – | 0.716 |
| CN(C)c1cccc(F)c1C(=O)NC(=O)Nc1ccc(Cl)cc1 | – | > 100 | – | > 100 | – | > 100 | – | > 22.3 | – | > 23.2 | – | > 34.4 | – | > 100 | – | 69.6 | – | > 100 | – | > 100 |
| CC1=Nc2c([nH]c(=S)[nH]c2=O)NC(c2c(Cl)cccc2Cl)C1 (stereo not given) | – | 2.64 | – | 3.51 | – | 17.2 | – | 17.1 | – | 2.35 | – | 2.21 | – | 7.4 | – | 9.91 | – | 9.99 | – | 3.09 |
| Cc1[nH]c2cc(F)ccc2c1-c1nc2c3cccnc3c3ncccc3c2[nH]1 | 0.215 | 1.57 | 0.191 | 1.8 | 0.204 | 1.41 | 1.09 | 4.74 | 0.436 | 1.66 | 0.324 | 4.77 | 0.343 | 1.89 | 0.19 | 0.785 | 0.169 | 0.726 | 0.399 | 3.38 |
| CCOC(=O)Nc1cc2ccccc2c(N=Nc2ccccc2)c1O | – | > 100 | – | > 100 | – | > 100 | – | > 100 | – | > 100 | – | > 100 | – | > 100 | – | 69.4 | – | > 100 | – | > 100 |
| COCCOCCOCc1n(Cc2ccc3ccccc3n2)c2ccccc2[n+]1Cc1ccc2ccccc2n1 | 0.369 | 4.42 | 2.67 | 41.8 | 0.217 | 2.74 | 2.16 | 21 | 0.53 | 10.6 | 0.421 | 13.2 | 0.657 | 12.2 | 1.23 | 9.7 | 0.388 | 1.48 | 0.306 | 11.1 |
| C=Cn1c([N+](=O)[O-])cnc1/C=C/c1ccc(C(=O)OCCN2CCOCC2)cc1 | – | > 100 | – | > 100 | – | > 100 | – | > 100 | – | > 100 | – | > 100 | – | > 100 | – | > 100 | – | > 100 | – | > 100 |
